For one assay, the system named is MCF-7 cells. Nature of the assay: Breast cancer cell line proliferation inhibitory activity (CellTiter-Glo 2.0). It is filed as cell-based. The following applies: Homo sapiens, MCF7, 120 hours. Here is the method: In order to evaluate the breast cancer cell line cell proliferation inhibitory activities of Examples according to the present invention, the following experiment was performed. Breast cancer cells of MCF-7 (Korean Cell Line Bank) were planted in a clear bottom white 96-well plate (Corning) so as to be 3×10^3/150 μl/well, and a culture solution comprising the compound continuously diluted in multiples of 3 at 12 concentrations (0.00001-2 mM) and a DMSO control group was added by 0.5 μl/well and treated so that the final concentration was 0.00005-10 μM, and then cultured in a 37° C. CO2 incubator for 120 hours. After 120 hours, the plate treated with the compound is taken out, and CellTiter-Glo® 2.0 Assay (Promega) solution is treated at 150 μl/well and then they mix well. They mix well at room temperature for 10 minutes or so, and the fluorescence is measured with a microplate reader. The data were expressed as a percentage in proportion to the vehicle standard treated cells, the GI50 (nM) values were calculated using GraphPad Prism 8.3.0 (GraphPad software Inc., San Diego), and the results were shown in Table 3 below.
For orientation: Cellular ATP, detected with luciferase, serves as a proxy for viable cell number.

The next assay deals with T1, human FLT3-ITD enzyme (Homo sapiens, UniProt P36888).
T1 sequence (P36888 1-993): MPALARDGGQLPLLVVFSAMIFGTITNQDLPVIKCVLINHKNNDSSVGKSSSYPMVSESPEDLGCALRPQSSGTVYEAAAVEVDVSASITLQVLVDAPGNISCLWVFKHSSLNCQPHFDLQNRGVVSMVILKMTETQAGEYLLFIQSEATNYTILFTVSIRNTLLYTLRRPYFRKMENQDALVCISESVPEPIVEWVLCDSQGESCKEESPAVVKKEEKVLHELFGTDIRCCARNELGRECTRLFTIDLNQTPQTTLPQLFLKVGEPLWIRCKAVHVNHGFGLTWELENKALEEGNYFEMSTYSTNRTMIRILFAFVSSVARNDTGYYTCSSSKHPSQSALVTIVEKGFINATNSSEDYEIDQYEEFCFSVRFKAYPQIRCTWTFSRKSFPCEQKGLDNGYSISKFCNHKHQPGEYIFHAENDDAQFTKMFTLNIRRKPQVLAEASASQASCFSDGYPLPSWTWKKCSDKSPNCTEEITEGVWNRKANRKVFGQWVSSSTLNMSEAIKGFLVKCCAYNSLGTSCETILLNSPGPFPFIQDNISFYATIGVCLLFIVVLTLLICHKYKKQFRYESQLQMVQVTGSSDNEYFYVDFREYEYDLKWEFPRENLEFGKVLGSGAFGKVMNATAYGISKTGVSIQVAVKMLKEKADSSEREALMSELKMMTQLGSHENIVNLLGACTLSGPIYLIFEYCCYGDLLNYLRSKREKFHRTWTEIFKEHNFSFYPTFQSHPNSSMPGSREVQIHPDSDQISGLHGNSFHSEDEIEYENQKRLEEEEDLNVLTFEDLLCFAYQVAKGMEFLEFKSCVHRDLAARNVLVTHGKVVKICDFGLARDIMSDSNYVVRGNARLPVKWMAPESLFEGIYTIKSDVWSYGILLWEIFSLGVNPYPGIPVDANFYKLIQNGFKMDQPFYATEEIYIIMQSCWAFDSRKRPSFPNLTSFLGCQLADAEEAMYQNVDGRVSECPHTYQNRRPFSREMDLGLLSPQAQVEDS
In words: FLT3 enzyme inhibitory ability (ADP-Glo kinase assay). It is filed as biochemical. The following applies: human FLT3-ITD enzyme 10 ng, ATP 10 μM, 25° C. 1 hour. The procedure, abridged: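 Purified human FLT3-ITD (10 ng) with 10 μM ATP and specific substrate in 40 mM Tris-HCl pH 7.4, 20 mM MgCl2, 0.5 mg/mL BSA, 50 μM DTT, 1 h at 25 °C. ADP formation read by ADP-Glo luminescence; IC50 (nM) versus solvent-treated control.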
For orientation: ADP-Glo turns the ADP formed in a reaction into a luminescent signal.

For the next assay, the target named is T2, human GST-HPK1 (1-346) (Homo sapiens, UniProt Q92918).
T2 construct: purified human GST-HPK1 (1-346, Signalchem) enzyme; purchased Signalchem
T2 sequence (Q92918 1-346): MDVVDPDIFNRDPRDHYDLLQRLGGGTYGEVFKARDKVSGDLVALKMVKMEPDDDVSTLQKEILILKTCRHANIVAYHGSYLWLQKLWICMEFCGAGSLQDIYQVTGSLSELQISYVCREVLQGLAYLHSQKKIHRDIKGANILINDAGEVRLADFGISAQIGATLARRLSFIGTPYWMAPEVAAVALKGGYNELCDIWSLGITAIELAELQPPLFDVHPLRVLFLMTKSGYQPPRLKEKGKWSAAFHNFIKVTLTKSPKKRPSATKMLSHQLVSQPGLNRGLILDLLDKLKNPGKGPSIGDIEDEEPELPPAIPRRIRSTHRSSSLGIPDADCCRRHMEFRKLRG
In words: HPK1 enzyme inhibitory ability (ADP-Glo kinase assay). The following applies: human GST-HPK1 3 ng, ATP 3 uM, 25° C. 2 hours. It is filed as biochemical. Here is the method:
In order to evaluate the inhibitory activities of the example compounds according to the present invention on the HPK1 (hematopoietic progenitor kinase 1) enzyme, the following experiment was performed. The example compounds were reacted with the purified human GST-HPK1 (1-346, Signalchem) enzyme to evaluate the enzyme inhibitory ability by the following method. As the reaction buffer, a composition of 40 mM Tris-HCl pH 7.4, 20 mM MgCl2, 0.5 mg/mL BSA and 50 uM DTT was used, and reactions of all test matters were performed on the reaction buffer. Upon the test, the human GST-HPK1 (3 ng) enzyme, the purified ATP (3 uM) and a specific substrate solution were reacted at 25° C. for 2 hours, and then the enzyme activity was identified using an in vitro ADP-Glo™ kinase assay (promega). The enzyme activity reaction solution, the ADP-Glo reaction solution and the enzyme ability detection solution were reacted in a ratio of 2:2:1 to measure luminescence. The enzyme activity inhibition degree according to the treatment concentrations of the respective compounds was calculated based on the fluorescence of the enzyme activity of the solvent control group that was not treated with the compound, where the concentration of each compound that inhibited enzyme activity inhibition by 50% was determined as an IC50 (nM) value.

As usually defined, the GI50 is the concentration that inhibits growth by half. Low values mean more potent growth inhibition, high ones less potent growth inhibition. The IC50 is the concentration at which inhibition is half-maximal. Read a high IC50 as weaker potency. Regarding `CN1CCN(c2ccc(Nc3nc(N4N=CCC4c4ccccc4)c4cc[nH]c4n3)cc2)CC1` (stereo not drawn) [Example 68, N-(4-(4-methylpiperazin-1-yl)phenyl)-4-(5-phenyl-4,5-dihydro-1H-pyrazol-1-yl)-7H-pyrrolo[2,3-d]pyrimidin-2-amine], the 50% growth inhibitory concentration (GI50) in the assay on MCF-7 cells is more than 500 nM. Also, the IC50 was 250 to 500 nM on human FLT3-ITD enzyme and more than 500 nM on human GST-HPK1 (1-346).
For `OCCN1CCN(c2ccc(Nc3nc(N4OCC[C@H]4c4ccccc4)c4cc[nH]c4n3)cc2)CC1` [Example 81, (S)-2-(4-(4-((4-(3-phenylisoxazolidin-2-yl)-7H-pyrrolo[2,3-d]pyrimidin-2-yl)amino)phenyl)piperazin-1-yl)ethan-1-ol], the GI50 with MCF-7 cells is more than 500 nM. The half-inhibitory concentration (IC50) against human FLT3-ITD enzyme was 250 to 500 nM; on human GST-HPK1 (1-346), not below 250 nM.
In turn, `COc1cc(Nc2nc(N3OCC[C@H]3c3ccccc3)c3cc[nH]c3n2)ccc1N1CCN(CCO)CC1` [Example 82, (S)-2-(4-(2-methoxy-4-((4-(3-phenylisoxazolidin-2-yl)-7H-pyrrolo[2,3-d]pyrimidin-2-yl)amino)phenyl)piperazin-1-yl)ethan-1-ol] had a GI50 in the assay with MCF-7 cells of more than 500 nM. Besides, the concentration for half-maximal inhibition (IC50) against human FLT3-ITD enzyme and against human GST-HPK1 (1-346) was not below 250 nM throughout.
Consider `CCN1CCN(C2CCN(c3ccc(Nc4nc(N5OCC[C@H]5c5ccccc5)c5cc[nH]c5n4)cc3)CC2)CC1` [Example 85, (S)-N-(4-(4-(4-ethylpiperazin-1-yl)piperidin-1-yl)phenyl)-4-(3-phenylisoxazolidin-2-yl)-7H-pyrrolo[2,3-d]pyrimidin-2-amine], for which, in the assay with MCF-7 cells, the GI50 is more than 500 nM. Further, the IC50 is more than 500 nM on human FLT3-ITD enzyme and not below 250 nM on human GST-HPK1 (1-346).
In the assay on MCF-7 cells, `COc1cc(Nc2nc(N3OCC[C@H]3c3ccccc3)c3cc[nH]c3n2)ccc1N1CCC(N2CCN(CCO)CC2)CC1` [Example 90, (S)-2-(4-(1-(2-methoxy-4-((4-(3-phenylisoxazolidin-2-yl)-7H-pyrrolo[2,3-d]pyrimidin-2-yl)amino)phenyl)piperidin-4-yl)piperazin-1-yl)ethan-1-ol] had a 50% growth inhibitory concentration (GI50) of more than 500 nM. Further, the IC50 against human FLT3-ITD enzyme was 250 to 500 nM; against human GST-HPK1 (1-346), not below 250 nM.
The matching figures for `CN1C[C@@H]2C[C@H]1CN2c1cc(Nc2nc(N3OCC[C@H]3c3ccccc3)c3cc[nH]c3n2)cc(S(C)(=O)=O)c1` [Example 91, N-(3-((1S,4S)-5-methyl-2,5-diazabicyclo[2.2.1]heptan-2-yl)-5-(methylsulfonyl)phenyl)-4-((S)-3-phenylisoxazolidin-2-yl)-7H-pyrrolo[2,3-d]pyrimidin-2-amine]: more than 500 nM, more than 500 nM and not below 250 nM.
In the same order, the values of `CN1C[C@H]2C[C@@H]1CN2c1cc(Nc2nc(N3OCC[C@H]3c3ccccc3)c3cc[nH]c3n2)cc(S(C)(=O)=O)c1` [Example 92, N-(3-((1R,4R)-5-methyl-2,5-diazabicyclo[2.2.1]heptan-2-yl)-5-(methylsulfonyl)phenyl)-4-((S)-3-phenylisoxazolidin-2-yl)-7H-pyrrolo[2,3-d]pyrimidin-2-amine] are more than 500 nM, more than 500 nM and not below 250 nM.
The matching figures for `OCCN1CC[C@@H](Oc2cc(Nc3nc(N4OCC[C@H]4c4ccccc4)c4cc[nH]c4n3)cc(C3CC3)c2)C1` [Example 93, 2-((R)-3-(3-cyclopropyl-5-((4-((S)-3-phenylisoxazolidin-2-yl)-7H-pyrrolo[2,3-d]pyrimidin-2-yl)amino)phenoxy)pyrrolidin-1-yl)ethan-1-ol]: more than 500 nM, more than 500 nM and more than 500 nM.
On to `CN1CCC(NC(=O)c2ccc(Nc3nc(N4OCC[C@H]4c4ccccc4)c4cc[nH]c4n3)cc2)CC1` [Example 95, (S)-N-(1-methylpiperidin-4-yl)-4-((4-(3-phenylisoxazolidin-2-yl)-7H-pyrrolo[2,3-d]pyrimidin-2-yl)amino)benzamide], for which the GI50 in the assay with MCF-7 cells is more than 500 nM. Moreover, the half-maximal inhibitory concentration (IC50) against human FLT3-ITD enzyme is more than 500 nM; against human GST-HPK1 (1-346), not below 250 nM.
In turn, `CN(C)[C@H]1CCN(c2cccc(Nc3nc(N4OCC[C@H]4c4ccccc4)c4cc[nH]c4n3)c2)C1` [Example 99, N-(3-((S)-3-(dimethylamino)pyrrolidin-1-yl)phenyl)-4-((S)-3-phenylisoxazolidin-2-yl)-7H-pyrrolo[2,3-d]pyrimidin-2-amine] had a GI50 in the assay on MCF-7 cells of more than 500 nM. Also, the IC50 against human FLT3-ITD enzyme and against human GST-HPK1 (1-346) was more than 500 nM in each case.
In the case of `CN(C)[C@@H]1CCN(c2cccc(Nc3nc(N4OCC[C@H]4c4ccccc4)c4cc[nH]c4n3)c2)C1` [Example 100, N-(3-((R)-3-(dimethylamino)pyrrolidin-1-yl)phenyl)-4-((S)-3-phenylisoxazolidin-2-yl)-7H-pyrrolo[2,3-d]pyrimidin-2-amine], the GI50 with MCF-7 cells was more than 500 nM. For the same compound, the IC50 against human FLT3-ITD enzyme and at human GST-HPK1 (1-346) was more than 500 nM each time.
With `CC1(C)OC(=O)c2ccc(Nc3nc(N4OCC[C@H]4c4ccccc4)c4cc[nH]c4n3)cc21` [Example 115, (S)-3,3-dimethyl-5-((4-(3-phenylisoxazolidin-2-yl)-7H-pyrrolo[2,3-d]pyrimidin-2-yl)amino)isobenzofuran-1(3H)-one], in the assay with MCF-7 cells, the GI50 is more than 500 nM. The IC50 against human FLT3-ITD enzyme and against human GST-HPK1 (1-346) was more than 500 nM throughout.
On to `COc1cc(N2CCC(N3CCN(C)CC3)CC2)ccc1Nc1nc(N2OCC[C@H]2c2ccccc2)c2c(C#N)c[nH]c2n1` [Example 121, (S)-2-((2-methoxy-4-(4-(4-methylpiperazin-1-yl)piperidin-1-yl)phenyl)amino)-4-(3-phenylisoxazolidin-2-yl)-7H-pyrrolo[2,3-d]pyrimidine-5-carbonitrile], for which the GI50 in the assay on MCF-7 cells was not below 250 nM. For the same compound, the IC50 at human FLT3-ITD enzyme and against human GST-HPK1 (1-346) was more than 500 nM each time.
For `CN(C)[C@@H]1CCN(c2cccc(Nc3nc(N4OCC[C@@H]4c4ccccc4)c4cc[nH]c4n3)c2)C1` [Example 125, N-(3-((R)-3-(dimethylamino)pyrrolidin-1-yl)phenyl)-4-((R)-3-phenylisoxazolidin-2-yl)-7H-pyrrolo[2,3-d]pyrimidin-2-amine], the GI50 with MCF-7 cells is more than 500 nM. In addition, the IC50 on human FLT3-ITD enzyme and against human GST-HPK1 (1-346) was more than 500 nM in each case.
